Common to all, as to test: biochemical
What all share (assay type): binding

Test [1] has as its target T1, α2β2 nAChR subtype (Rattus norvegicus, UniProt P12389+P12390).
T1 construct: expressed in transfected cells
From the text:
(§1) In order to assess the steric and hydropathic effects of the C-5 substituents of the pyridine on the binding affinity and subtype-selectivity at neuronal nicotinic acetylcholine receptors. […] The binding affinity ratios for a ligand, calculated from its affinities at an α subunit paired with either the β2 osubunit or the β4 subunit, represents a measure of the selectivity of that ligand with regard to the β subunits.

In test [2] the target is T2, α2β4 nAChR subtype (Rattus norvegicus, UniProt P12389+P12392).
T2 construct: expressed in transfected cells
T2 sequence (P12389 28-511): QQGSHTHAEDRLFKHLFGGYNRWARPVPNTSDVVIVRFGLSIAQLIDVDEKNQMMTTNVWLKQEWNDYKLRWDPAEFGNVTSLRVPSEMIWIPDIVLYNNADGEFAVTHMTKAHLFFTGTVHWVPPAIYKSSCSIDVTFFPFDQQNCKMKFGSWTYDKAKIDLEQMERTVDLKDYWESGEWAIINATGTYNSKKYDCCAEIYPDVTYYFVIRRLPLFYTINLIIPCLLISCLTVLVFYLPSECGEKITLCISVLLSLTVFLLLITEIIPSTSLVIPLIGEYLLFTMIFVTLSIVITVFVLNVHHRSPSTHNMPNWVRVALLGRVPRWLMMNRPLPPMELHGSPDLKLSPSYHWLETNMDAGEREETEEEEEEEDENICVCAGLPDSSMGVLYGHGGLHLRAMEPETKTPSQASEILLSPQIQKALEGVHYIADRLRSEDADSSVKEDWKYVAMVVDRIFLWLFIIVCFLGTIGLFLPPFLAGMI
T2 sequence (P12392 21-495): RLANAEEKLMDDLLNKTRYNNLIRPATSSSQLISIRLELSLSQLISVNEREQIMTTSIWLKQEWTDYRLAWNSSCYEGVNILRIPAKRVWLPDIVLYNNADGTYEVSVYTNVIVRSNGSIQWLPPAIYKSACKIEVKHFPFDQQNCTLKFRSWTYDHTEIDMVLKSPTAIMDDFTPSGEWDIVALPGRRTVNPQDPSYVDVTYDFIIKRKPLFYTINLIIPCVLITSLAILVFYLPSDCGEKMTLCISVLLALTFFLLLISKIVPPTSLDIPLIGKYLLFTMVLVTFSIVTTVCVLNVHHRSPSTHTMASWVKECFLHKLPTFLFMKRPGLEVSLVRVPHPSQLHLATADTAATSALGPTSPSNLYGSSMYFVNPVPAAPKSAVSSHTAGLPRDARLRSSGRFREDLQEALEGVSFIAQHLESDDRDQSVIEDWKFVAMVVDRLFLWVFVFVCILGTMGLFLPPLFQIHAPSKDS
Text: as §1

The target of test [3] is T3, α3β2 nAChR subtype (Rattus norvegicus, UniProt P04757+P12390).
T3 construct: expressed in transfected cells
T3 sequence (P12390 25-500): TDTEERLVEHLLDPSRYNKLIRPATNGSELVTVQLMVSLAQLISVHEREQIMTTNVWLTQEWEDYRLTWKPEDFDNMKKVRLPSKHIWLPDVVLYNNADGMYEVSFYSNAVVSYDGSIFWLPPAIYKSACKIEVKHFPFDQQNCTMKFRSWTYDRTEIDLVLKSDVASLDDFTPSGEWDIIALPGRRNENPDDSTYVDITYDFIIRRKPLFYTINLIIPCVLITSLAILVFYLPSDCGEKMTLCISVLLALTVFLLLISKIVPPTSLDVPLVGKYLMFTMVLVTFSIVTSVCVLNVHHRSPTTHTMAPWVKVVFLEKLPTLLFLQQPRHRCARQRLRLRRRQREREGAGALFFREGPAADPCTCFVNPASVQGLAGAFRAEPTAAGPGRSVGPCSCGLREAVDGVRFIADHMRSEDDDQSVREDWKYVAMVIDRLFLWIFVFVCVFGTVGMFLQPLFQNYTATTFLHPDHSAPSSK
T3 sequence (P04757 26-499): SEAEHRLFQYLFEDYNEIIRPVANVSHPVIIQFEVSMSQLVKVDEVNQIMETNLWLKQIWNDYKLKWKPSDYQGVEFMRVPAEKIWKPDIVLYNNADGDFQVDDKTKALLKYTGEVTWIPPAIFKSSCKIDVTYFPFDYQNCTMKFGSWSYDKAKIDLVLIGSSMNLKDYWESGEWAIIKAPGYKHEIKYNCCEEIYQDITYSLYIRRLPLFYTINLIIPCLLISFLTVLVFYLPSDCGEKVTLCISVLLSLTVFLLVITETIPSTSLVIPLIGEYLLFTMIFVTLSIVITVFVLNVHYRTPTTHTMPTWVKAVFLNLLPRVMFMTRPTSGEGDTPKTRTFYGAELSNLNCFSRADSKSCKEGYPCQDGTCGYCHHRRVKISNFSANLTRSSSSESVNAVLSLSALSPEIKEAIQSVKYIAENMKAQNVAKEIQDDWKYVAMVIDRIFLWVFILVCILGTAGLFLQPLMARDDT
Text: as §1

The target in test [4] is T4, α3β4 nAChR subtype (Rattus norvegicus, UniProt P04757+P12392).
T4 construct: expressed in transfected cells
T4 sequence (P04757 26-499): as above
T4 sequence (P12392 21-495): as the sequence (P12392 21-495) above
Text: as §1

In test [5] the target is T5, α4β2 nAChR subtype (Rattus norvegicus, UniProt P09483+P12390).
T5 construct: expressed in transfected cells
T5 sequence (P12390 25-500): as the sequence (P12390 25-500) above
T5 sequence (P09483 31-630): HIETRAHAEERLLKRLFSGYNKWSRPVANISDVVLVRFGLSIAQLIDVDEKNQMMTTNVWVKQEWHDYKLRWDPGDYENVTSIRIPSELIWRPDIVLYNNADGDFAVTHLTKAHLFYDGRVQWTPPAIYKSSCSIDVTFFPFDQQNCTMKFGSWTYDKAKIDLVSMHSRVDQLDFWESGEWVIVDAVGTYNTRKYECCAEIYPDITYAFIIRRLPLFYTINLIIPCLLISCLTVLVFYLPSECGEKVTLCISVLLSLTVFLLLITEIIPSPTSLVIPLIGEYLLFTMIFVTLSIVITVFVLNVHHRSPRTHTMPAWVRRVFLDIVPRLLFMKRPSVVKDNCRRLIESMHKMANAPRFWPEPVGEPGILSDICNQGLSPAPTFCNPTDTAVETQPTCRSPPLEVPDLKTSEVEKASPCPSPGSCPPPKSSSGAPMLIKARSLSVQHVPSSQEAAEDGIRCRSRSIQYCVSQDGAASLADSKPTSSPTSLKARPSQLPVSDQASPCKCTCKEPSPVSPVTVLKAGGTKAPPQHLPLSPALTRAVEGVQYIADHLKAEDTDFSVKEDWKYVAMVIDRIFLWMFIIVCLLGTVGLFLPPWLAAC
Text: as §1

Test [6] has as its target T6, α4β4 nAChR subtype (Rattus norvegicus, UniProt P09483+P12392).
T6 construct: expressed in transfected cells
Text: as §1

The target in test [7] is T7, receptors in rat forebrain (mainly α4β2) (Rattus norvegicus, UniProt P09483+P12390).
T7 construct: from tissue; host or cells: rat forebrain homogenate
T7 sequence (P09483 31-630): as above
T7 sequence (P12390 25-500): as the sequence (P12390 25-500) above
Text: as §1
In Vitro Inhibition of ^3H-Epibatidin Binding
The high affinity binding site for ^3H-epibatidin is most certainly binding to the α4β2 subtype of nicotinic receptors. The identity of the low affinity site is still believed to be unknown.
Tissue preparation: Preparations may be performed at 0-4° C. unless otherwise indicated. […] The tissue suspension may then be centrifuged at 27,000×g for 10 min. The supernatant is then discarded and the pellet may then be washed three times by centrifugation at 27,000×g for 10 min in 20 mL fresh buffer, and the final pellet may be resuspended in fresh buffer (400 mL per g of original tissue) and used for binding assays.
Assay: Aliquots of 2.0 mL homogenate may be added to 0.100 mL of test solution and 0.100 mL of ^3H-epibatidin (0.3 nM, final concentration), mixed and incubated for 60 min at room temperature. […] The amount of radioactivity on the filters may be determined by conventional liquid scintillation counting. Specific binding is total binding minus non-specific binding.

Where [8] appears, read: Ki α2β2, Table 5, rat nAChR subtypes.
Setting [9] is: Ki α2β4, Table 5, rat nAChR subtypes.
The mark [10] stands for this setting: Ki α3β2, Table 5, rat nAChR subtypes.
[11] abbreviates: Ki α3β4, Table 5, rat nAChR subtypes.
Where [12] appears, read: Ki α4β2, Table 5, rat nAChR subtypes.
The mark [13] stands for this setting: Ki α4β4, Table 5, rat nAChR subtypes.
Where [14] appears, read: Ki α4β2*, Table 5, *Rat forebrain, mainly α4β2.
The mark [15] stands for this setting: Table 3, mean ± SEM of 3 (nicotine, 1: 3 to 6) independent measurements, read-out: Ki α2β4.
Where [16] appears, read: Table 3, mean ± SEM of 3 (nicotine, 1: 3 to 6) independent measurements, read-out: Ki α3β2.
[17] abbreviates: Table 3, mean ± SEM of 3 (nicotine, 1: 3 to 6) independent measurements, read-out: Ki α3β4.
Where [18] appears, read: Table 3, mean ± SEM of 3 (nicotine, 1: 3 to 6) independent measurements, read-out: Ki α4β2.
Where [19] appears, read: Table 3, mean ± SEM of 3 (nicotine, 1: 3 to 6) independent measurements, read-out: Ki α4β4.
[20] abbreviates: Table 5, rat nAChR subtypes, read-out: Ki α4β4.
Setting [21] is: Table 5, rat nAChR subtypes, read-out: Ki α3β4.

Like-named read-outs stand apart in the source and are kept apart here.

T1 sequence (P12390 25-500): as above
T1 sequence (P12389 28-511): as the sequence (P12389 28-511) above
T6 sequence (P12392 21-495): as the sequence (P12392 21-495) above
T6 sequence (P09483 31-630): as the sequence (P09483 31-630) above

As usually defined, the Ki is the dissociation constant of the complex between target and ligand, obtained from inhibition or displacement. For `FCCCCC#Cc1cncc(OC[C@@H]2CCCN2)c1` [Ligand 42, 5-(6-Fluoro-1-hexynyl)-3-(2(S)-pyrrolidinylmethoxy)pyridine], the Ki was 3.5 nM in test [1] (setting [8]); 680 nM in test [2] (setting [9]); 5.27 nM in test [3] (setting [10]); 7580 nM in test [4] (setting [11]); 0.907 nM in test [5] (setting [12]); 721 nM in test [6] (setting [13]). The same molecule had a Ki in test [7] (setting [14]) of 3.45 nM.

As for `Clc1ccc2c(n1)CCC21CC2CCC1N2` (stereo not drawn) [Ligand 58b], the Ki in test [1] (setting [8]) worked out at 2460 nM; in test [2] (setting [9]) it was 7090 nM; in test [2] (setting [15]), 7180 nM; in test [3] (setting [10]), 3660 nM; in test [3] (setting [16]), 4070 nM; in test [4] (setting [11]), 14900 nM. The Ki in test [4] (setting [17]) amounted to 13800 nM; in test [5] (setting [12]), 5050 nM; in test [5] (setting [18]), 6990 nM; in test [6] (setting [19]), 9460 nM; in test [6] (setting [20]), 9560 nM; in test [7] (setting [14]), 12100 nM.

As for `O=C1CC2NC1CC2c1ccc(Cl)nc1` (stereo not drawn) [Ligand 4, 2-exo-(2-Chloro-5-pyridyl)-7-azabicyclo[2.2.1]heptan-5-one], the Ki in test [1] (setting [8]) is 642 nM; in test [2] (setting [9]), 1140 nM; in test [3] (setting [10]), 1890 nM; in test [4] (setting [11]), 4430 nM; in test [5] (setting [12]) it was 7080 nM; in test [6] (setting [13]), 3240 nM. Moreover, in test [7] (setting [14]), the Ki came to 4570 nM.

On to `CN1CCC[C@H]1COc1cncc(C#CCCCCO)c1` [Ligand 16], for which the Ki in test [1] turned out to be 2.87 nM; in test [2] it was 3230 nM; in test [3], 12.6 nM; in test [4], 40200 nM; in test [5], 0.81 nM; in test [6], 1270 nM. In addition, in test [7], the Ki was determined as 3.56 nM.

With `CCCCCc1cncc(C2CC3CCC2N3)c1` (stereo not drawn) [ZW-95], the Ki in test [1] (setting [8]) amounted to 0.323 nM; in test [2] (setting [9]) it was 24.9 nM; in test [3] (setting [10]), 0.165 nM; in test [4] (setting [11]), 122 nM; in test [5] (setting [12]), 0.151 nM; in test [6] (setting [13]), 7.91 nM. This molecule also registered a Ki in test [7] (setting [14]) of 0.314 nM.

For the molecule `Clc1cc2c(cn1)C1C3CCC(N3)C1CC2` (stereo not drawn) [Ligand 37a], the Ki in test [1] (setting [8]) is 294 nM; in test [1] (Table 3, mean ± SEM of 3 (nicotine, 1: 3 to 6) independent measurements, read-out: Ki α2β2), 290 nM; in test [2] (setting [9]) it was 693 nM; in test [2] (setting [15]), 717 nM; in test [3] (setting [10]), 345 nM; in test [3] (setting [16]), 354 nM. The inhibition constant Ki in test [4] (setting [11]) is 2170 nM; in test [4] (setting [17]), 2280 nM; in test [5] (setting [12]), 67.4 nM; in test [5] (setting [18]), 73 nM; in test [6] (setting [13]), 672 nM; in test [6] (setting [19]), 637 nM. The same molecule displayed a Ki in test [7] (setting [14]) of 339 nM.

For `O=C1CC2CC(c3ccc(Cl)nc3)C1N2` (stereo not drawn) [Ligand 5, 2-exo-(2-Chloro-5-pyridyl)-7-azabicyclo[2.2.1]heptan-6-one], the Ki in test [1] (setting [8]) is 1010 nM; in test [2] (setting [9]) it was 3240 nM; in test [3] (setting [10]), 1500 nM; in test [4] (setting [11]) it was 8870 nM; in test [5] (setting [12]) it was 2020 nM; in test [6] (setting [13]), 3560 nM. In addition, the Ki in test [7] (setting [14]) is 1350 nM.

As to `O=c1cccc2n1C[C@@H]1CNC[C@H]2C1` [Cytisine, reference compound], the Ki worked out at 0.571 nM in test [1]; 3.51 nM in test [2]; 8.06 nM in test [3]; 210 nM in test [4] (setting [21]); 1.35 nM in test [5]; 1.52 nM in test [6]. This molecule registered a Ki in test [7] of 2.57 nM.

Take `O=c1cccc2n1C[C@H]1C[C@@H]2CN(CCCCCN2C[C@@H]3C[C@H](C2)c2cccc(=O)n2C3)C1` [ZW-19]: the Ki in test [1] is 240 nM; in test [2], 1430 nM; in test [3], above 1000 nM; in test [4], above 10000 nM; in test [5], 383 nM; in test [6], 468 nM. For the same molecule, the Ki in test [7] worked out at 603 nM.

Regarding `CCCCCC#Cc1ccc(C2CC3CCC2N3)cn1` (stereo not drawn) [Ligand 34], the Ki in test [1] (setting [8]) worked out at 16.9 nM; in test [2] (setting [9]), 67.4 nM; in test [3] (setting [10]) it was 19.8 nM; in test [4] (setting [11]) it was 95.4 nM; in test [5] (setting [12]), 67.7 nM; in test [6] (setting [13]) it was 61.8 nM. Moreover, the Ki in test [7] (setting [14]) turned out to be 52 nM.

Consider “Hexane-1,3-N,N′-bisepibatidine [Ligand 59c]”, for which the Ki in test [1] (Table 5, rat nAChR subtypes, read-out: Ki α2β2) stood at 4.12 nM; in test [2] (Table 5, rat nAChR subtypes, read-out: Ki α2β4) it was 37.4 nM; in test [3] (Table 5, rat nAChR subtypes, read-out: Ki α3β2), 6.61 nM; in test [4] (setting [21]) it was 64.7 nM; in test [5] (Table 5, rat nAChR subtypes, read-out: Ki α4β2) it was 7.2 nM; in test [6] (setting [20]), 31.9 nM. The Ki in test [7] (Table 5, *Rat forebrain, mainly α4β2, read-out: Ki α4β2*) was found to be 14.2 nM.

On to `OC1CC2CC(c3ccc(Cl)nc3)C1N2` (stereo not drawn) [Ligand 8, 2-exo-(2-Chloro-5-pyridyl)-6-exo-hydroxyl-7-azabicyclo[2.2.1]heptane], for which the Ki in test [1] (setting [8]) came out at 6.3 nM; in test [2] (setting [9]), 39.7 nM; in test [3] (setting [10]), 8.88 nM; in test [4] (setting [11]), 144 nM; in test [5] (setting [12]), 12.6 nM; in test [6] (setting [13]) it was 45.6 nM. In test [7] (setting [14]), this molecule yielded a Ki of 22.9 nM.

`O[C@H]1C[C@H]2C[C@H](c3ccc(Cl)nc3)[C@@H]1N2` (relative stereo) [Ligand 9, 2-exo-(2-Chloro-5-pyridyl)-6-endo-hydroxyl-7-azabicyclo[2.2.1]heptane]: the Ki in test [1] (setting [8]) is 1.53 nM; in test [2] (setting [9]), 5.85 nM; in test [3] (setting [10]) it was 1.36 nM; in test [4] (setting [11]) it was 27.3 nM; in test [5] (setting [12]), 0.916 nM; in test [6] (setting [13]) it was 5.57 nM. This molecule also came in with a Ki in test [7] (setting [14]) of 4.11 nM.

As to `CN1CCC[C@H]1COc1cccnc1` [Ligand 8, 3-(1-Methyl-2(S)-pyrrolidinylmethoxy)pyridine, reference compound], the Ki in test [1] (setting [8]) came out at 1.07 nM; in test [1] (Ki α2β2, Table 6, [3H]-EB 0.099 nM, 0.091 nM, ligand 0.00197-100 μM, n = 1) it was 1.07 nM; in test [2] (setting [9]) it was 209 nM; in test [2] (Ki α2β4, Table 6, [3H]-EB 0.099 nM, 0.091 nM, ligand 0.00197-100 μM, n = 1) it was 209 nM; in test [3] (setting [10]), 9.04 nM; in test [3] (Ki α3β2, Table 6, [3H]-EB 0.099 nM, 0.091 nM, ligand 0.00197-100 μM, n = 1), 9.04 nM. The Ki in test [4] (setting [11]) amounted to 835 nM; in test [4] (Ki α3β4, Table 6, [3H]-EB 0.099 nM, 0.091 nM, ligand 0.00197-100 μM, n = 1), 835 nM; in test [5] (setting [12]), 1.4 nM; in test [5] (Ki α4β2, Table 6, [3H]-EB 0.099 nM, 0.091 nM, ligand 0.00197-100 μM, n = 1), 1.4 nM; in test [6] (setting [13]), 205 nM; in test [6] (Ki α4β4, Table 6, [3H]-EB 0.099 nM, 0.091 nM, ligand 0.00197-100 μM, n = 1) it was 205 nM. For the same molecule, the Ki in test [7] (Ki α4β2**, Table 6, **Forebrain mainly α4β2, [3H]-EB 0.099 nM, 0.091 nM, n = 1) was 5.15 nM; in test [7] (setting [14]) it was 5.15 nM.

With `O=c1cccc2n1C[C@H]1C[C@@H]2CN(CCCN2C[C@@H]3C[C@H](C2)c2cccc(=O)n2C3)C1` [ZW-18], the Ki is 318 nM in test [1]; 3480 nM in test [2]; above 1000 nM in test [3]; above 10000 nM in test [4]; 468 nM in test [5]; 746 nM in test [6]. Moreover, the Ki in test [7] stood at 936 nM.
